# Test results published in patent US20230332103A1, “Methods and Compositions for Generating Human Forebrain Neural Progenitor Cells and for Maturation Thereof to Parvalbumin+ Interneurons” (Trailhead Biosystems Inc., priority 2021, published 2023).
# Legend:
# [1] = system: stage 4 neural stem cells; assay: factor criticality analysis of stage 5 recipe; assay type: cell-based, human; details: FIG. 28-30
# Description: To assess the impact of elimination of each validated factor, we again used dynamic profile analysis and compared the expression level of genes of interest in the absence of each finalized factor while others are present.
# In the stage 5 recipe, each of seven finalized factors were removed while other factors were kept present and expression levels of PVALB and SST were assessed compared to the presence of all seven factors. […] 2-phospho-L-ascorbic acid, BDNF, IGF-1 were included in the stage 5 recipe (FIG. 28). […] Others were also found to increase the expression of somatostatin that was SST interneuron marker. So, they are excluded from the recipe and N2 was included in the stage 5 recipe (FIG. 29). […] Sodium pyruvate was included in the stage 5 recipe (FIG. 30).
# [2] = system: stage 4 neural stem cells; assay: HD-DoE 8-factor experiment for stage 5 recipe (Forskolin, Arachidonic acid, VPA, BDNF, BT13, O-LPA, GW7646, Sodium pyruvate), optimized for PVALB; assay type: cell-based, human; details: for impact on expression of PVALB: dynamic profile analysis, FIG. 26
# Description: To further guide the differentiation of forebrain-committed neural stem cells to PVALB interneuron cells, an additional HD-DoE experiment was performed for 3 days on cells that were treated with stage 1 to stage 4 media for total of 12 days prior to start of the experiment. This experiment included 8 effectors, Forskolin, Arachidonic acid, VPA, BDNF, BT13, O-LPA, GW7646, and Sodium pyruvate. In this model, we focused on maximum expression of PVALB gene expressed in PVALB (+) interneurons (Nahar et al. (2021) Front. Psych. 12:679960). When the model was optimized for maximum expression of PVALB, Forskolin, GW7646, Sodium Pyruvate had the highest factor contributions, 3.14, 27.2, and 17.1 respectively (FIG. 25).
# So, it was excluded in the recipe.
smiles,measurement,setting,value
CC(=O)C(=O)[O-].[Na+] [Sodium pyruvate],contribution to expression of PVALB (Parvalbumin),[1],contribute to PVALB expression
same,impact on expression of PVALB,[2],significant effect
same,impact on expression of PVALB,[2]; listed as sodium pyruvate,positive impact
same,factor contribution on expression of PVALB,"[2]; positive, model optimized for maximum expression of PVALB, FIG. 25",17.1
